We go through one substance from publication PMC6751662, “Pharmacological and functional similarities of the human neuropeptide Y system in C. elegans challenges phylogenetic views on the FLP/NPR system” (Cell Communication and Signaling : CCS, 2019).

Type in all cases: cell-based, C. elegans
The target in one test is T1, NPR-3 (Caenorhabditis elegans, UniProt P90745).
T1 construct: expressed in transfected cells; host or cells: HEK293
T1 sequence (P90745 1-376): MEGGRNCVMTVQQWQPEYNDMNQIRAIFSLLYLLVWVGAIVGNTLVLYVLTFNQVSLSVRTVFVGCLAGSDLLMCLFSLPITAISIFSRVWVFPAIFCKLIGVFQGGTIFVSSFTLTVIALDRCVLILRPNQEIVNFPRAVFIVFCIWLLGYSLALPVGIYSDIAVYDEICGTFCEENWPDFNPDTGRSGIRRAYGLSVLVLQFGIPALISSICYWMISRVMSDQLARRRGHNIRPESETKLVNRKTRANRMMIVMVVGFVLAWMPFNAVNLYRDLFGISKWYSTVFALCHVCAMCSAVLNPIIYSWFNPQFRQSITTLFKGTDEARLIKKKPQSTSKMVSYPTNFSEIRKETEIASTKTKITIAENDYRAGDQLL
Description: cAMP reporter gene assay, Gs (no forskolin), NPR-3. The conditions noted are these: no forskolin, 4 h, transiently transfected HEK293, CRE-luciferase reporter, mean of >=3 independent experiments. How it is done:
(§1) Activation of Gs and Gi/o was assessed with a cAMP reporter gene assay. HEK293 cells grown to 70–80% confluency in 6-well plates were transiently co-transfected with vectors encoding the receptor and the cAMP reporter gene plasmid pGL4.29 [luc2P/CRE/Hygro] (Promega; 4 μg total, 1:1 ratio) using Metafectene Pro (3 μl/μg DNA; Biontex) following the manufacturer’s instructions. 16 h post transfection, the cells were seeded into white 384-well plates at a density of 20,000 cells/well. On the next day, the medium was removed and the cells were stimulated with 20 μl of peptide solution (or forskolin as positive control) in serum-free DMEM for 4 h. For measuring Gi/o activity, the peptide solutions additionally contained 1 μM forskolin to elevate cellular cAMP levels. After incubation, the luciferase substrate OneGlo in lysis buffer (Promega) was added and the luminescence was measured in a microplate reader Tecan Spark (Tecan). Data were analyzed with GraphPad Prism 5.03 and are shown as fold of basal or fold of forskolin in case of Gαi/o activity.
(§2) For in vitro activation, data is presented as mean ± SEM of at least three independent experiments conducted in technical triplicate. […] For the C. elegans NPRs, we considered the strongest response elicited by any of the peptides downstream of a particular receptor as the receptor’s maximal signal. This may or may not be the biological maximum that can be reached by the ‘true’ endogenous agonist. For the human receptors, the response to the established endogenous agonist reflected the maximal signal.
Background: A reporter such as luciferase makes a cellular process visible.

Test [1] addresses T2, NPR-4b (Caenorhabditis elegans, UniProt A0A078BTK0).
T2 sequence (A0A078BTK0 1-376): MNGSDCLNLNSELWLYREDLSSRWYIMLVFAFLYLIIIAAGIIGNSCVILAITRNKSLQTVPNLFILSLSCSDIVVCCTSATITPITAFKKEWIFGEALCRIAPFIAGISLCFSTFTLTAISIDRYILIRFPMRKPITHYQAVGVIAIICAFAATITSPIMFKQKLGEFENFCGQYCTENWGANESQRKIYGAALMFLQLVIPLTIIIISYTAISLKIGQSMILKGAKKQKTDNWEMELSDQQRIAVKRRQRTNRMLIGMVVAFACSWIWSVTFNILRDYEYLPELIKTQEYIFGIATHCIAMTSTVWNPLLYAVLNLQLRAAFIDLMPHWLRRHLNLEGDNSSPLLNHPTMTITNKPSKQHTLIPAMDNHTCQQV
Description: cAMP reporter gene assay, Gs (no forskolin), NPR-4b. The settings on record: no forskolin, 4 h, transiently transfected HEK293, CRE-luciferase reporter, mean of >=3 independent experiments. On the procedure:
as §1, §2

Test [2] has as its system NPR-6. Put plainly: IP accumulation assay, co-transfected Gα16, NPR-6. The settings on record: 1 h, HBSS + 20 mM LiCl, HEK293 receptor + Gα16, HTRF IP-One, mean of >=3 independent experiments. How it is done: (§3) For measuring IP accumulation, HEK293 cells grown to 70–80% confluency in 6-well plates were transiently co-transfected using Metafectene Pro (2.5 μl/μg DNA; Biontex) with plasmids containing receptor and/or mock (empty pcDNA3.1) (for endogenous Gq-coupling) using 4 μg total DNA in a ratio of 3:1 following the manufacturer’s instructions. For testing Gα16- and GαΔ6qi4myr-coupling, plasmids encoding the corresponding Gα protein were co-transfected instead of mock. Gα16 is naturally promiscuous and stimulates the phospholipase C (PLC) pathway leading to IP production, while the exchange of the C-terminal four amino acids of Gαq for the corresponding residues of Gαi1 in the chimeric GαΔ6qi4myr confers the ability to couple to Gi/o protein-preferring receptors but still stimulate PLC, thus specifically redirecting downstream cellular signaling. 16 h post transfection, the cells were seeded into white 384-well plates at a density of 20,000 cells/well. Media was removed 24 h later and the cells were incubated with the indicated concentration of peptides for 1 h in HBSS + 20 mM LiCl. IP accumulation was measured with the HTRF-based IP-One Gq kit (Cisbio) on a microplate reader (Tecan Spark).
(§4) For in vitro activation, data is presented as mean ± SEM of at least three independent experiments conducted in technical triplicate. […]
On the technique in general: Time-resolved FRET reads energy transfer from a long-lived donor to a nearby acceptor.

The next test deals with T3, NPR-11 (Caenorhabditis elegans, UniProt Q18179).
T3 construct: expressed in transfected cells; host or cells: HEK293, transient
T3 sequence (Q18179 1-402): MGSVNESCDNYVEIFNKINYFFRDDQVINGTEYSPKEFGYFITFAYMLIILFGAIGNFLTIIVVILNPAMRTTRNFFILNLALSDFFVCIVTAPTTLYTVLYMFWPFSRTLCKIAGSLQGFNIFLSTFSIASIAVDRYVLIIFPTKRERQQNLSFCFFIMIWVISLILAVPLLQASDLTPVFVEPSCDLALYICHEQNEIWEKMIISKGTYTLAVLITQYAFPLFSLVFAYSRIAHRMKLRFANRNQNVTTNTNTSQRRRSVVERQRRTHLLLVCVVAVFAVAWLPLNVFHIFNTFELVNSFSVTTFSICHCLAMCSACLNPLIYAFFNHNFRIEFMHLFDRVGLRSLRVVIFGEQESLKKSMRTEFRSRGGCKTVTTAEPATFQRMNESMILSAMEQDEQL
Description: cAMP reporter gene assay, Gs (no forskolin), NPR-11. The conditions noted are these: no forskolin, 4 h, transiently transfected HEK293, CRE-luciferase reporter, mean of >=3 independent experiments. On the procedure:
as §1, §2

Test [3] has as its system NPR-6. Description: cAMP reporter gene assay, Gs (no forskolin), NPR-6. The settings on record: no forskolin, 4 h, transiently transfected HEK293, CRE-luciferase reporter, mean of >=3 independent experiments. How it is done: as §1, §2
Test [4] concerns the target T2, NPR-4b. Description: IP accumulation assay, co-transfected Gα16, NPR-4b. The conditions noted are these: 1 h, HBSS + 20 mM LiCl, HEK293 receptor + Gα16, HTRF IP-One, mean of >=3 independent experiments. How it is done: as §3, §4
For test [5], the target named is T2, NPR-4b. Put plainly: IP accumulation assay, endogenous Gαq + mock, NPR-4b. The conditions noted are these: 1 h, HBSS + 20 mM LiCl, HEK293 receptor + empty vector, HTRF IP-One, mean of >=3 independent experiments. How it is done: as §3, §4
The mark [6] stands for this setting: 0.1 nM peptide (so in the source).

For the substance “APKPKFIRF-NH2 [FLP-5-1, C. elegans FMRFamide-like peptide, C-terminally amidated, synthesized by SPPS]”, the “cAMP assay Gs, NPR-3” value on NPR-3 (0.1 µM peptide) is 0.86 x-fold of basal; at NPR-3 (10 µM peptide), 0.85 x-fold of basal. In addition, the entries for the “cAMP assay Gs, NPR-4b” value on NPR-4b [1] (0.1 µM peptide) and at NPR-4b [1] (10 µM peptide) were 0.89 x-fold of basal and 0.92 x-fold of basal, respectively. Besides, the “IP assay endog. Gαq + Gα16, NPR-6” value in the test with NPR-6 [2] (setting [6]) is reported as 1.01 x-fold of basal; in the test on NPR-6 [2] (10 µM peptide) it was 0.96 x-fold of basal. Also, the entries for the “cAMP assay Gs, NPR-11” value on NPR-11 (0.1 µM peptide) and on NPR-11 (10 µM peptide) were 0.70 x-fold of basal and 0.69 x-fold of basal, respectively. The results for the “cAMP assay Gs, NPR-6” value in the test with NPR-6 [3] (0.1 µM peptide) and in the test with NPR-6 [3] (10 µM peptide) were 0.68 x-fold of basal and 0.57 x-fold of basal, respectively. Also, the “IP assay endog. Gαq + Gα16, NPR-4b” value on NPR-4b [4] (setting [6]) was 1.04 x-fold of basal; at NPR-4b [4] (10 µM peptide), 0.84 x-fold of basal. The results for the “IP assay endog. Gαq + mock, NPR-4b” value at NPR-4b [5] (setting [6]) and at NPR-4b [5] (10 µM peptide) were 0.98 x-fold of basal and 0.99 x-fold of basal, respectively.
